Publication PMC2652713, “Molecular Blocking of CD23 Supports Its Role in the Pathogenesis of Arthritis” (PLoS ONE, 2009)
Entries after “also recorded” stand apart in the source; their conditions may differ.

Assays:
[1] = tested on: iNOS mRNA in human CD23+ monocyte-derived macrophages; assay: iNOS mRNA expression (RT-PCR) in CD23-activated human macrophages; type: cell-based; conditions: CD23-McAb 20 µg/ml, 1 h pre-incubation with 10 µg/ml peptide, versus HPRT mRNA
Procedure: Figure 2 Inhibition of CD23-mediated activation of iNOS pathway in human macrophages by p30A. Human CD23^+ monocyte-derived macrophages were incubated with cross-linking CD23-McAb (20 µg/ml) alone or following 1 h pre-incubation with 10 µg/ml of various peptides. […] Expression of iNOS mRNA was compared to HPRT mRNA levels. (B) Inhibition of NO generation from human activated macrophages by synthetic peptides. Cell supernatants were collected 72 h following cell cultures and levels of nitrites were determined. […] Results are expressed as mean of 3 distinct donor cell preparations (SEM<20%). (C) Inducible NOS-mediated NO generation in human macrophages is decreased following pre-incubation with p30A or L-NIL prior to CD23-mediated activation. Results are expressed as mean±s.d. of 7 distinct donor cell preparations.
(§1) Monocytes or macrophages were activated through CD23 pathway: while monocytes/macrophages from RA patients express CD23, monocytes from healthy donors must be pre-activated to express surface CD23 as described. […] Cells supernatants were then analyzed for their nitric oxide content (see below) and for the presence of cytokines: levels of TNF-α and IL-6 were determined in duplicates for each sample by a specific ELISA (R&D, Paris, France) while levels of IL-1β, IL-8 and IL-10 was determined using FlowCytomix Human Th1/Th2 Kit as recommended (Bender Medsystems, Vienna, Austria). […]

[2] = tested on: RA patients derived monocytes/macrophages; assay: Inflammatory mediator release from rheumatoid arthritis patients' monocytes/macrophages; type: cell-based, human; conditions: peripheral and synovial fluid monocytes/macrophages of 7 RA patients; 1 h pre-incubation, CD23 activation; 72 h
Source text: Figure 5 p30A inhibits the production of CD23-dependent inflammatory mediator release in cells from rheumatoid arthritis (RA) patients. (A) PBL and synovial monocytes/macrophages from RA patients were labeled with anti-CD23-FITC or isotype-matched (Iso) McAb and compared to healthy PBL. Representative fluorescence intensity data obtained from one case, out of 11 distinct patients or healthy individuals. (B) Inhibition of inflammatory mediator release from RA patients derived monocytes/macrophages. PBL monocytes or macrophages collected from synovial liquid were activated through CD23 after 1 h pre-incubation with/without p30A or pCtl. Cell supernatants were collected 72 h later and nitrites, TNF-α and IL-6 were quantified. Values are expressed as mean±s.e.m from 7 patients' cells.
Peripheral blood samples pre-tested for the absence of HIV or hepatitis virus infections were obtained from healthy volunteers (EFS Aquitaine, Bordeaux Blood Bank). We also collected paired peripheral blood and synovial fluid from seven patients, who fulfilled the American College of Rheumatology criteria for RA, during arthritic crisis. Written informed consent was obtained from all the patients. This study was carried out in compliance with the Helsinski Declaration and was approved by the National Ethical Authorities. All seven patients had previously received conventional therapy but none has been given TNF blocker or any other biologic treatment for their condition. […]
as §1

[3] = tested on: rat peritoneal macrophages; assay: NO generation by IgE/DNP-activated rat peritoneal macrophages; type: cell-based
Procedure: Figure 6 Inhibition of in vitro and in vivo inflammatory responses in rats by p30A peptide. (A) Rat peritoneal macrophages were activated via CD23 antigens with/without p30A, L-NIL or pCtl. Cell supernatants were collected 48 h later and nitrite levels were quantified. Values are mean±s.d. of cells from 3 different rats. (B) Cumulative clinical score/rat obtained following 50 days post-immunization in all groups. AIA rats were treated either after or before (d0) the onset of symptoms. Treatment consisted of p30A, hydrocortisone (HC, 30 mg/rat)) or pCtl (100 mg/rat). Shown are means of cumulative score/rat±s.d. from 5 (HC) or 8 rats (other conditions). (C) Evolution of arthritis severity scores of adjuvant-induced arthritis (AIA) in rats treated with intracutaneous p30A or pCtl (100 mg/rat) or hydrocortisone (after the onset of clinical signs as illustrated by arrows (means from 8 rats, s.e.m.<20%). (D) Histopathologic analysis confirm p30A ability to decrease all components of AIA lesions: pannus formation and inflammation of the synovium (P), deformity of joint and bones (asterix), bone remodeling and destruction (arrowhead), bone neoformation (arrows) and cartilage destruction.
Culture supernatants (72 h) were assayed for the stable end-product of NO, NO2 ^− using the Griess reaction modified as detailed elsewhere. […]

[4] = tested on: CD23

FHENWPS [p30A]
iNOS-encoding mRNA level [1]: reduced the levels of inducible nitric oxide synthase (iNOS)-encoding mRNA; also recorded: decreased in cells pre-incubated with p30A | IL-6 release [2]: reversed inflammatory mediators at the same levels than control cell-supernatants | TNF-α release [2]: reversed inflammatory mediators at the same levels than control cell-supernatants | nitric oxide (nitrites) release [2]: reversed inflammatory mediators at the same levels than control cell-supernatants | reversal of IgE/DNP activation ([3]; rat macrophages ex-vivo): able to reverse the IgE/DNP activation of rat macrophages ex-vivo | CD23-mediated induction of NO generation ([3]; rat peritoneal macrophages, IgE/DNP, peptide 1 h prior, supernatants at 48 h, 3 rats): significant decrease in CD23-mediated induction of NO generation | side agonistic effect [4]: absence of side agonistic effect
